Literature values, collected in patent US20030036641A1, “Methods for homology-driven reassembly of nucleic acid sequences” (priority 2001, published 2003).

System: E. coli TG1
Conditions: E. coli TG1 containing pGJ103 (pI258 ars operon in pUC19), LB ampicillin agar plates

sodium arsenate
MIC (minimum inhibitory concentration): 4 mg/L
